The text below walks through data of US9758412B2, “Device for purifying liquid wastewater, and method for cleaning liquid wastewater using said device” (CENTRE NATIONAL DE LA RECHERCHE SCIENTIFIQUE (C.N.R.S.), priority 2012, dated 2017).

Series [1] relates to Xenopus larvae. To be noted: stage 50 to 54, devices: diuron-spiked tank water after 10 days of circulation, T(+): cyclophosphamide 20 mg/L in river water. How it is done: The mass of Tubifex tubifex worms is of the order of 500 mg (fresh weight) per sanitizing device and is representative of the average density of these oligochaete worms in the natural environment (56 000 oligochaete worms/m^2 of river).
The acute toxicity of the sanitized water is measured by incubating Xenopus larvae, selected at a stage of development of 50 to 54 […], for a period of 12 days with said sanitized water on larvae. This measurement permits observation of the signs of intoxication of the larvae induced by exposure to the water obtained at the outlet of the sanitizing device at the end of treatment.

In series [2] the test system is Xenopus larvae. To be noted: cyclophosphamide 20 mg/L in river water; compared with negative control T(−) and sanitized water D8.

Consider `O=P1(N(CCCl)CCCl)NCCCO1` (stereo not drawn) [T(+), cyclophosphamide], for which, in the series with Xenopus larvae [1], the “Toxicity, 1 to 5 days” value was “Lethal” and the “Toxicity, 5 to 12 days” value is on record as “Lethal”. Further, the “Genotoxicity (induction of micronuclei)” value in the series with Xenopus larvae [2] is reported as “confirmed genotoxicity”.
